# Test results reported in patent US20170266154A1, “METHOD FOR TREATING ALZHEIMER'S DISEASE AND 2, 3-BIPHOSPHOGLYCERATE METABOLISM DISORDER INDUCED” (National Sun Yat-sen University, priority 2016, published 2017).
# Biological target: hemoglobin (Homo sapiens, UniProt P68871+P69905)
# Assay: hemoglobin-oxygen equilibrium curves (P50 value, oxygen saturation fraction)
# Format: biochemical
# Conditions: for effect in combination with 2,3-BPG on hemoglobin modulation: FIG. 2
# From the text: The oxygen affinity of hemoglobin was represented by P50 value. The P50 value was the required partial pressure of oxygen to achieve 50% oxygen saturation.
# [1] = PO2 20 mmHg, 2,3-BPG 1.2 mM, alone or after treating with a phthalide compound (FIG. 7)
# Sequence of hemoglobin (P69905 2-142 limits assumed): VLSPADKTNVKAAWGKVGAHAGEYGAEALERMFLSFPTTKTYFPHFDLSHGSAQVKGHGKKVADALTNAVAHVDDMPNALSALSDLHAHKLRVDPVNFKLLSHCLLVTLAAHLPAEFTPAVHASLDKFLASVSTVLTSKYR
# Sequence of hemoglobin (P68871 2-147 limits assumed): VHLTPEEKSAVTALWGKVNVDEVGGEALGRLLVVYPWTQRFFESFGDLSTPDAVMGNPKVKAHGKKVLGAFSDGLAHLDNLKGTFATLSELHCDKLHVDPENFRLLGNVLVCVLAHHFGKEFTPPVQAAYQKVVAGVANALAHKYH
SMILES,oxygen release efficiency [1],oxygen saturation level / fraction of hemoglobin [1],"P50 value of hemoglobin (about 4 mM 2,3-BPG, no phthalide compound)","oxygen release efficiency of hemoglobin (oxygen partial pressure 20 mmHg, 12 mM 2,3-BPG, hemoglobin without 2,3-BPG 20%)","oxygen saturation fraction of hemoglobin (oxygen partial pressure 20 mmHg, 12 mM 2,3-BPG, hemoglobin without 2,3-BPG about 80%)","2,3-BPG required for hemoglobin to reach a P50 value of 18.8 mmHg (approximately the same or higher) (without or after administration of phthalide compounds (FIG. 6))","effect in combination with 2,3-BPG on hemoglobin modulation"
"O=C(O)C(COP(=O)(O)O)OP(=O)(O)O (centres unmarked) [2,3-BPG, 2,3-bisphosphorglycerate]",40%,about 60%,18.8 mmHg,65%,~35%,about 4 mM,–
"CCC/C=C1\OC(=O)C2=C1CC[C@@H](O)[C@@H]2O [Senkyunolide I, senkyunolide I]",–,–,–,–,–,–,synergistic effect
"CCC/C=C1\OC(=O)C2=C1CCC=C2 [Z-Ligustilide, Z-ligustilide]",–,–,–,–,–,–,synergistic effect
